The values below come from ChEMBL document CHEMBL3045039, “Computational studies of new 1,4-dihydropyridines containing 4-(5)-chloro-2-ethyl-5-(4)-imidazolyl substituent: QSAR and docking” (Med Chem Res, 2010).

For this assay, the target named is Voltage-dependent L-type calcium channel subunit alpha-1C (Cavia porcellus, UniProt O35505). The assay can be described thus: Inhibition of calcium channel in Cavia porcellus (guinea pig) ileum assessed as inhibition of KCl-induced contraction. It counts as tissue-based.
Voltage-dependent L-type calcium channel subunit alpha-1C, sequence (O35505 whole entry): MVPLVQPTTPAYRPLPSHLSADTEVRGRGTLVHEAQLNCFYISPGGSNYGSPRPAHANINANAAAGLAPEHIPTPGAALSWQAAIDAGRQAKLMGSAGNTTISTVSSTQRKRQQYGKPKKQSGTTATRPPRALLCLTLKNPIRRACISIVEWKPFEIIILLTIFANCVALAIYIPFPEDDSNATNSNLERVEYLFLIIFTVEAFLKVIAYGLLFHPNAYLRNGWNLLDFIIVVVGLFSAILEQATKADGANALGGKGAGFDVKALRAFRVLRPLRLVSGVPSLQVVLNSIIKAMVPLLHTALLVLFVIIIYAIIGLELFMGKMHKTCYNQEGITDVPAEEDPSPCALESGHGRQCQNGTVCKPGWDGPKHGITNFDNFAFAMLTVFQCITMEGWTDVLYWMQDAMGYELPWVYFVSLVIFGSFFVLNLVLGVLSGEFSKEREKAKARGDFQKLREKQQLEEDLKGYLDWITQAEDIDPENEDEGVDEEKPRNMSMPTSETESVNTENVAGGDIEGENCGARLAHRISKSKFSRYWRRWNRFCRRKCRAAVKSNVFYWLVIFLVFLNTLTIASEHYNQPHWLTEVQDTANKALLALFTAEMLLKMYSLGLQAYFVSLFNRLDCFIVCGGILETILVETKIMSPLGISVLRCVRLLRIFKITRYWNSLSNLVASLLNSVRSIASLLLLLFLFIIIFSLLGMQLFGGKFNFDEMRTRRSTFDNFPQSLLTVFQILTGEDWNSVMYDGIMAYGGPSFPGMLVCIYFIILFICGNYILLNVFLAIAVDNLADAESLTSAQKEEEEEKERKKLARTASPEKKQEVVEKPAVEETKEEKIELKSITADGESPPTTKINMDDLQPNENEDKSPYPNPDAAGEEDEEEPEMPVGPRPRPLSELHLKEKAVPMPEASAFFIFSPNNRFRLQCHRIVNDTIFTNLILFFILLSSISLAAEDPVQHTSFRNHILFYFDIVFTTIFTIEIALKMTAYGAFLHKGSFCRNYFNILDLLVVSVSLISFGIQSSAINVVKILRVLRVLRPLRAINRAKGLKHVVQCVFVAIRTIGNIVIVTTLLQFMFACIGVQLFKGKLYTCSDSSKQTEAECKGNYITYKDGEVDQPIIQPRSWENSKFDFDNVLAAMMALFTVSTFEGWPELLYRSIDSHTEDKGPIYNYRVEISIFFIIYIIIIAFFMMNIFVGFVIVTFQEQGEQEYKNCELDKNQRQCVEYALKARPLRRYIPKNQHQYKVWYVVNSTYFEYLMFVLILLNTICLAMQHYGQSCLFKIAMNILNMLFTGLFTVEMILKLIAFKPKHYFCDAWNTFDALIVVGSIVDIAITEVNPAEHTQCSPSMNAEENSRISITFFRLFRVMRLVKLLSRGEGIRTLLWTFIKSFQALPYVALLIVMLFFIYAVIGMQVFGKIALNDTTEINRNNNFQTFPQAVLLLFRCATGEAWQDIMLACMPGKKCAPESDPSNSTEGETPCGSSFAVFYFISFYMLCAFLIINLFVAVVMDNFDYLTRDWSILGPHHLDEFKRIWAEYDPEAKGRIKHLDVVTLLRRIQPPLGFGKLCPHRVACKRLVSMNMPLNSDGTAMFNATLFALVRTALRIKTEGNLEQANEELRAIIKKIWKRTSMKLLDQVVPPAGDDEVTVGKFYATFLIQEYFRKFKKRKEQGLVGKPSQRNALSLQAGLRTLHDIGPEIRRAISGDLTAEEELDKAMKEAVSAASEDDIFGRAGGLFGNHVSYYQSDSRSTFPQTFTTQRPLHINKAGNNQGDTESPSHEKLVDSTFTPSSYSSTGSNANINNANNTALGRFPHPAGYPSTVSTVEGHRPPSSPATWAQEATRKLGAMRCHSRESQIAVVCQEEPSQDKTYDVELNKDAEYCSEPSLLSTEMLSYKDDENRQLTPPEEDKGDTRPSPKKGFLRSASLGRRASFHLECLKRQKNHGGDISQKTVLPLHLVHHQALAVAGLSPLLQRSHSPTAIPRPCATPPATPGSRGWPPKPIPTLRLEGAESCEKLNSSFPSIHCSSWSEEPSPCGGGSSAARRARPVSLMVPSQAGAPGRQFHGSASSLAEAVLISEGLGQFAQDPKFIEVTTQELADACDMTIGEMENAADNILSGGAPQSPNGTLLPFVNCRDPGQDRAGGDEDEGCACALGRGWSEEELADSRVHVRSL

For the compound `CCc1nc(C2C(C(=O)OCc3ccccc3)=C(C)NC(C)=C2C(=O)OCc2ccccc2)c(Cl)[nH]1`, the IC50 was 0.906 nM.
Consider `CCc1nc(C2C(C(=O)OCCc3ccccc3)=C(C)NC(C)=C2C(=O)OCCc2ccccc2)c(Cl)[nH]1`, for which the IC50 is 0.0437 nM.
For `CCc1nc(C2C(C(=O)OC)=C(C)NC(C)=C2C(=O)OCCc2ccccc2)c(Cl)[nH]1` (stereo not drawn), the IC50 was 0.0309 nM.
As for `CCOC(=O)C1=C(C)NC(C)=C(C(=O)OCCc2ccccc2)C1c1nc(CC)[nH]c1Cl` (stereo not drawn), the figure is 0.0457 nM.
As for `CCc1nc(Cl)c(C2C(C(=O)OC)=C(C)NC(C)=C2C(=O)OC)[nH]1`, the figure is 0.596 nM.
Turning to `CCOC(=O)C1=C(C)NC(C)=C(C(=O)OCC)C1c1[nH]c(CC)nc1Cl`, the IC50 was 0.158 nM.
For `CCCOC(=O)C1=C(C)NC(C)=C(C(=O)OCCC)C1c1[nH]c(CC)nc1Cl`, the IC50 was 0.13 nM.
Under `CCc1nc(Cl)c(C2C(C(=O)OC(C)C)=C(C)NC(C)=C2C(=O)OC(C)C)[nH]1` stands 0.748 nM; under `CCc1nc(Cl)c(C2C(C(=O)OCC(C)C)=C(C)NC(C)=C2C(=O)OCC(C)C)[nH]1`, 2.64 nM.
With `CCc1nc(Cl)c(C2C(C(=O)OC(C)(C)C)=C(C)NC(C)=C2C(=O)OC(C)(C)C)[nH]1`, the half-inhibitory concentration (IC50) is 34.2 nM.
For `CCc1nc(Cl)c(C2C(C(=O)OC3CCCC3)=C(C)NC(C)=C2C(=O)OC2CCCC2)[nH]1`, the half-maximal inhibitory concentration (IC50) was 0.212 nM.
As for `CCc1nc(Cl)c(C2C(C(=O)OC3CCCCC3)=C(C)NC(C)=C2C(=O)OC2CCCCC2)[nH]1`, the figure is 0.132 nM; as for `CCc1nc(Cl)c(C2C(C(=O)OCCCc3ccccc3)=C(C)NC(C)=C2C(=O)OCCCc2ccccc2)[nH]1`, 0.0668 nM; as for `CCOC(=O)C1=C(C)NC(C)=C(C(=O)OC)C1c1[nH]c(CC)nc1Cl` (stereo not drawn), 2.02 nM.
Turning to `CCCOC(=O)C1=C(C)NC(C)=C(C(=O)OC)C1c1[nH]c(CC)nc1Cl` (stereo not drawn), the concentration for half-maximal inhibition (IC50) was 0.146 nM.
Turning to `CCc1nc(Cl)c(C2C(C(=O)OC)=C(C)NC(C)=C2C(=O)OC(C)C)[nH]1` (stereo not drawn), the IC50 was 0.488 nM.
For `CCc1nc(Cl)c(C2C(C(=O)OC)=C(C)NC(C)=C2C(=O)OC(C)(C)C)[nH]1` (stereo not drawn), the IC50 is 50.8 nM.
As for `CCc1nc(Cl)c(C2C(C(=O)OC)=C(C)NC(C)=C2C(=O)OCc2ccccc2)[nH]1` (stereo not drawn), the figure is 1.75 nM; as for `CCCOC(=O)C1=C(C)NC(C)=C(C(=O)OCC)C1c1[nH]c(CC)nc1Cl` (stereo not drawn), 0.543 nM; as for `CCOC(=O)C1=C(C)NC(C)=C(C(=O)OC(C)C)C1c1[nH]c(CC)nc1Cl` (stereo not drawn), 0.564 nM.
With `CCOC(=O)C1=C(C)NC(C)=C(C(=O)OC(C)(C)C)C1c1[nH]c(CC)nc1Cl` (stereo not drawn), the half-maximal inhibitory concentration (IC50) is 99.8 nM.
Under `CCOC(=O)C1=C(C)NC(C)=C(C(=O)OCC2CCCCC2)C1c1[nH]c(CC)nc1Cl` (stereo not drawn) stands 1.07 nM; under `CCOC(=O)C1=C(C)NC(C)=C(C(=O)OCc2ccccc2)C1c1[nH]c(CC)nc1Cl` (stereo not drawn), 2.66 nM.

The term IC50 denotes the concentration that inhibits the measured activity by half.
